Series [1] deals with T1, HaTreh-1 (soluble trehalase) (Helicoverpa armigera, UniProt A0A6B8YU37).
T1 sequence (A0A6B8YU37 24-571): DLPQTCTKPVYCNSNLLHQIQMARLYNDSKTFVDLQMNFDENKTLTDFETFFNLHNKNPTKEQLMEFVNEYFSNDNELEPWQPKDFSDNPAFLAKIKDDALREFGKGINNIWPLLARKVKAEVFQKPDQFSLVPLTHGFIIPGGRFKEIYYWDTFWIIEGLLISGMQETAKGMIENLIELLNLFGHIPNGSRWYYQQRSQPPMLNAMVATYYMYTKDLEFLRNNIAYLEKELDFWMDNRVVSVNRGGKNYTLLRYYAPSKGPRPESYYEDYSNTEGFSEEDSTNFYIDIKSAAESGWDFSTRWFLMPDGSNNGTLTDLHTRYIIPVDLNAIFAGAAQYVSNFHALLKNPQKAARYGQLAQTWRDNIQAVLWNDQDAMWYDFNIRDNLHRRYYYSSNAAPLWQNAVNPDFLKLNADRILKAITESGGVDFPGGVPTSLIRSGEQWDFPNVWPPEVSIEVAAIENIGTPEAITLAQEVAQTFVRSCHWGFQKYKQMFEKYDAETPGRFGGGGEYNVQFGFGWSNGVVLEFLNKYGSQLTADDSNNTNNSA
It is filed as biochemical.

Substrate in series [2]: OC[C@H]1O[C@H](O[C@H]2O[C@H](CO)[C@@H](O)[C@H](O)[C@H]2O)[C@H](O)[C@@H](O)[C@@H]1O
The series is described as follows: enzyme kinetics. The format is biochemical, Helicoverpa armigera.

`O[C@H]1[C@H](O)[C@@H](O)CN2CC[C@H](O)[C@H]12` [castanospermine]: in series [1], the Ki was 6.7 µM.

B1: HaTreh-1 (soluble trehalase) (Helicoverpa armigera) (protein)
chain: T1 sequence (A0A6B8YU37 24-571)
As for B1, the Km in series [2] worked out at 72.8 mM.

For the origin of these results see paper PMC6007452 (Journal of Insect Science, 2018).
